What follows are compounds tested against Egl nine homolog 1 (Homo sapiens, UniProt Q9GZT9) (assay: Inhibition of human EGLN1). Conditions: not given.
Sequence of Egl nine homolog 1 (Q9GZT9 whole entry): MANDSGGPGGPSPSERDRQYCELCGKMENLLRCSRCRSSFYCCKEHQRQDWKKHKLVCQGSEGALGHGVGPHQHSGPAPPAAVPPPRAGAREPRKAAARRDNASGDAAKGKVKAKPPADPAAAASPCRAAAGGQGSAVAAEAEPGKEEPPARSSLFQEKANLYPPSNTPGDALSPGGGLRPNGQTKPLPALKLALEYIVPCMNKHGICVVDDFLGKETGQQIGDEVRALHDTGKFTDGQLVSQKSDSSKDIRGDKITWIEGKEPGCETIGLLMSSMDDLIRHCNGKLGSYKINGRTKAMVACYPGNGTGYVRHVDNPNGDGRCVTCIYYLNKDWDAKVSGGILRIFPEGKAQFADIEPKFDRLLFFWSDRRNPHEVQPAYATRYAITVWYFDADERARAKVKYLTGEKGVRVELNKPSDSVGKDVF

SMILES	IC50
O=C(O)c1ccc2cccnc2c1O	> 100 µM

The compounds below were run on HEK293 (assay: Induction of VEGF in HEK293 cells by ELISA). Conditions: Homo sapiens.

SMILES	EC50
O=C(NCc1ccccc1)c1ccc2cccnc2c1O	0.89 µM
O=C(Nc1ccccc1)c1ccc2cccnc2c1O	0.63 µM
O=C(Nc1cccnc1)c1ccc2cccnc2c1O	1.9 µM
COC(=O)c1ccc(NC(=O)c2ccc3cccnc3c2O)cc1	> 100 µM
N#Cc1cccc(NC(=O)c2ccc3cccnc3c2O)c1	0.42 µM
Cc1cc(F)cc(NC(=O)c2ccc3cccnc3c2O)c1	0.89 µM
COc1ccc(CNC(=O)c2ccc3cccnc3c2O)cc1	0.62 µM
O=C(NCc1ccc(Cl)cc1)c1ccc2cccnc2c1O	3.1 µM
O=C(Nc1ccc(C(F)(F)F)cc1)c1ccc2cccnc2c1O	> 100 µM
N#Cc1ccc(NC(=O)c2ccc3cccnc3c2O)cc1	0.14 µM
O=C(NCCc1ccccc1)c1ccc2cccnc2c1O	0.58 µM
COc1cc(NC(=O)c2ccc3cccnc3c2O)cc(OC)c1	3.2 µM
N#CCNC(=O)c1ccc2cccnc2c1O	4.1 µM
O=C(O)CNC(=O)c1ccc2cccnc2c1O	> 100 µM
